US9066518B2, “Heterocyclic compounds as pesticides” (Bayer CropScience AG, priority 2009, dated 2015)
Read-outs that look alike come from different tables or passages of the source.

Key:
[1] = logP determination (neutral / HCOOH); conditions: for chromatographic logP: HCOOH (formic acid)
[2] = tested on: green peach aphid (Myzus persicae); experiment: Myzus test (spray treatment); format: in vivo; conditions: foliar, 144 h, read-out: activity (effect in %, aphids killed)
Method: Solvents: 78 parts by weight of acetone
• 1.5 parts by weight of dimethylformamide Emulsifier 0.5 part by weight of alkylaryl polyglycol ether
To produce a suitable preparation of active compound, 1 part by weight of active compound is mixed with the stated amounts of solvents and emulsifier, and the concentrate is diluted with emulsifier-containing water to the desired concentration. Discs of leaves of Chinese cabbage (Brassica pekinensis) which are infested by all stages of the green peach aphid (Myzus persicae) are sprayed with an active compound preparation of the desired concentration.
After 6 days, the effect in % is determined. 100% means that all aphids have been killed; 0% means that none of the aphids has been killed.

[3] = application rate 500 g/ha, after 6 days, Chinese cabbage leaf discs

SMILES | chromatographic logP ([1]; logP (HCOOH), HCOOH) | pest or weed control at 500 g/ha [2, 3] | further results
c1cncc(-n2cc(-c3cnn(-c4cccnc4)c3)cn2)c1 [Example 112] | 1.37 | 80% | –
Cc1cnn(-c2cccc(-c3cnn(-c4cccnc4)c3)n2)c1 [Example 79] | 2.59 | 100% | –
Fc1cncc(-n2cc(-c3cccc(-c4ncccn4)n3)cn2)c1 [Example 14] | 1.81 | 90% | –
COCC(F)(F)c1cccc(-c2cnn(-c3cccnc3)c2)n1 [Example 11, 2-(1,1-Difluoro-2-methoxyethyl)-6-(1-pyridin-3-yl-1H-pyrazol-4-yl)pyridine] | – | 100% | logP ([1]; logP (neutral), neutral): 2.3
Nc1cccc(-c2cnn(-c3cncc(F)c3)c2)n1 [Example 106] | 0.64 | 90% | logP ([1]; logP (neutral), neutral): 1.59
FC(F)(F)c1cccc(-c2cnn(-c3cccnc3)c2)n1 [Example 4, 2-[1-(Pyridin-3-yl)-1H-pyrazol-4-yl]-6-(trifluoromethyl)pyridine] | 2.51 | 100% | –
CC(C)C(F)(F)c1cccc(-c2cnn(-c3cccnc3)c2)n1 [Example 66] | – | 100% | logP ([1]; logP (neutral), neutral): 3.22
CN1CCOC(c2cccc(-c3cnn(-c4cccnc4)c3)n2)=N1 [Example 58] | 1.54 | 100% | logP ([1]; logP (neutral), neutral): 1.68
c1cncc(-c2cnn(-c3cccnc3)c2)c1 [Example 39] | 0.39 | 100% | –
FC(F)(F)COc1cccc(-c2cnn(-c3cccnc3)c2)n1 [Example 25] | 2.96 | – | pest or weed control at 100 g/ha ([2]; application rate 100 g/ha, after 6 days, Chinese cabbage leaf discs): 80%
Fc1cncc(-n2cc(-c3cccc(C(F)(F)F)n3)cn2)c1 [Example 59] | 3.1 | 100% | logP ([1]; logP (neutral), neutral): 3.14
O=C(NCC(F)(F)F)c1cnc(-c2cnn(-c3cccnc3)c2)cc1C(F)(F)F [Example 109] | 2.11 | 90% | logP ([1]; logP (neutral), neutral): 2.18
CN1CCN(C(=O)c2cccc(-c3cnn(-c4cccnc4)c3)n2)CC1 [Example 100] | 0.46 | 100% | –
FC(F)c1cccc(-c2cnn(-c3cccnc3)c2)n1 [Example 63] | 2.02 | 100% | –
COC(OC)c1cccc(-c2cnn(-c3cccnc3)c2)n1 [Example 45] | 1.75 | 100% | –
FC(F)(F)C(F)(F)c1nccc(-c2cnn(-c3cccnc3)c2)n1 [Example 9, 2-(Pentafluoroethyl)-4-[1-(pyridin-3-yl)-1H-pyrazol-4-yl]pyrimidine] | – | 100% | logP ([1]; HCOOH, logP (HCOOH)): 2.7
FC(F)(F)c1ccnc(-n2ccc(-c3cnn(-c4cccnc4)c3)n2)n1 [Example 8, 1′-(Pyridin-3-yl)-1-[4-(trifluoromethyl)pyrimidin-2-yl]-1H,1′H-3,4′-bipyrazole] | 2.15 | 90% | –
Cc1nn(-c2cccnc2)cc1-n1ccc(C(F)(F)F)n1 [Example 26] | 2.51 | 100% | –
c1ccc(-c2ccn(-c3cnn(-c4cccnc4)c3)n2)nc1 [Example 23] | 1.19 | 100% | –
O=C(NCC(F)(F)F)c1ccc(-c2cnn(-c3cccnc3)c2)nc1 [Example 87] | 1.53 | 90% | logP ([1]; logP (neutral), neutral): 1.69
N#Cc1cccc(-c2cnn(-c3cccnc3)c2)n1 [Example 30, 6-(1-Pyridin-3-yl-1H-pyrazol-4-yl)pyridine-2-carbonitrile] | – | – | logP ([1]; logP (neutral), neutral): 1.79; logP (neutral) ([1]; neutral): 1.73; pest or weed control at 500 g/ha ([2]; in Brassica rapa): 100%
c1cnc(-c2ccnn2-c2cnn(-c3cccnc3)c2)nc1 [Example 93] | 1.16 | 100% | –
O=[N+]([O-])c1cnc(-n2ccc(-c3cnn(-c4cccnc4)c3)n2)nc1 [Example 102] | 1.64 | 100% | –
CC1(c2cccc(-c3cnn(-c4cccnc4)c3)n2)OCCCO1 [Example 69] | 1.78 | 100% | –
c1cncc(-n2cc(-c3cccc(-c4ncco4)n3)cn2)c1 [Example 76] | 1.57 | 100% | logP ([1]; logP (neutral), neutral): 1.69

SMILES | chromatographic logP ([1]; logP (HCOOH), HCOOH) | pest or weed control at 500 g/ha [2, 3] | further results
FC(F)(F)c1ccnc(-c2cnn(-c3cccnc3)c2)n1 [Example 35] | 2.23 | 80% | –
FC(F)(F)c1nc(-c2cccc(-c3cnn(-c4cccnc4)c3)n2)no1 [Example 74] | 2.77 | 100% | –
c1cncc(-n2cc(-c3cccc(C4OCC5(CC5)CO4)n3)cn2)c1 [Example 60] | 1.97 | 100% | logP ([1]; logP (neutral), neutral): 2.12
CC(C)(C)OC(=O)Nc1cccc(-c2cnn(-c3cccnc3)c2)n1 [Example 27] | 2.87 | 100% | –
CN(C)C(=O)c1nc(-c2cnn(-c3cccnc3)c2)cs1 [Example 83] | 1.51 | 100% | –
Fc1cnc(-n2ccc(-c3cnn(-c4cccnc4)c3)n2)nc1 [Example 31] | 1.52 | 100% | –
c1cncc(-n2cc(-c3cccc(C4=NCCO4)n3)cn2)c1 [Example 84] | 0.9 | 100% | logP ([1]; logP (neutral), neutral): 1.45
c1cnc(-c2nccc(-c3cnn(-c4cccnc4)c3)n2)nc1 [Example 46] | 0.86 | 100% | –
C=C1COC(c2cccc(-c3cnn(-c4cccnc4)c3)n2)OC1 [Example 75] | 1.9 | 100% | –
O=Cc1cccc(-c2cnn(-c3cccnc3)c2)n1 [Example 110] | 1.56 | 80% | –
Clc1ccc(-c2cnn(-c3cccnc3)c2)cc1 [Example 51] | 2.71 | 90% | –
Cc1ccn(-c2cccc(-c3cnn(-c4cccnc4)c3)n2)n1 [Example 77] | 2.51 | 100% | –
Cc1cc(C)n(-c2cccc(-c3cnn(-c4cccnc4)c3)n2)n1 [Example 21] | 2.64 | 100% | –
c1cncc(-n2cc(-c3cccc(-n4cccn4)n3)cn2)c1 [Example 19] | 2.21 | 100% | –
c1cc(-c2cnn(-c3cncnc3)c2)nc(C2OCCCO2)c1 [Example 68] | 1.51 | 100% | logP ([1]; logP (neutral), neutral): 1.56
COc1ccnc(-n2ccc(-c3cnn(-c4cccnc4)c3)n2)n1 [Example 28] | 1.71 | 100% | –
O=c1ccccn1-c1cccc(-c2cnn(-c3cccnc3)c2)n1 [Example 89] | 1.37 | 100% | –
Ic1cncc(-n2cc(-c3cccc(-c4ncccn4)n3)cn2)c1 [Example 37] | 2.37 | 100% | –
CC(=O)Nc1cccc(-c2cnn(-c3cccnc3)c2)n1 [Example 94] | 1.31 | 100% | –
O=C(Nc1cccc(-c2cnn(-c3cccnc3)c2)n1)C(F)(F)F [Example 103] | 2.21 | 90% | logP ([1]; logP (neutral), neutral): 2.28
c1cncc(-n2cc(-c3cccc(C4OCC5(CCC5)O4)n3)cn2)c1 (centres unmarked) [Example 90] | 2.37 | 100% | logP ([1]; logP (neutral), neutral): 2.53
c1cncc(-n2cc(-c3cccc(-n4ccnn4)n3)cn2)c1 [Example 61] | 1.68 | 90% | –
CC(=O)NC(NO)c1cccc(-c2cnn(-c3cccnc3)c2)n1 (centres unmarked) [Example 78] | 1.49 | 100% | –
O=C(c1cccc(-c2cnn(-c3cccnc3)c2)n1)N1CCOCC1 [Example 18] | 1.23 | 100% | –
